From ChEMBL document CHEMBL3507680, “University of Dundee, Gates Library screen for HepG2 cell viability”

Test: Human HepG2 cell viability assay in 384 well format
Format: toxicity, cell-based
Parameters: dose 125 nL, time 70.5 hour; concentration not given beside the values
Details: HepG2 cells, read-out: Inhibition

Compared with `O=C(c1c(O)cnc2ccccc12)N1CCN(CC(F)F)CC1`, `O=C(COc1ccccc1O)N1CCOC(C(F)(F)F)C1` (configuration not stated) is higher in cytotoxicity at 70.5 h: -3.97% for the first, 17.8% for the second.

Going from `Cc1cnn(CC(C)NCc2csc(-c3ccco3)n2)c1` (configuration not stated) to `Cc1cnn(CC2CCCN2C(=O)c2cccc(-n3ccc(C)n3)c2)c1` (configuration not stated), the cytotoxicity at 70.5 h falls from 4.15% to -7.87%.

Compared with `O=S(=O)(NCCc1ccccc1C(F)(F)F)N1CCOCC1`, `O=C(Cc1ccccc1F)NCC1CCN(CCN2CCOCC2)C1` (configuration not stated) is lower in cytotoxicity at 70.5 h: 23.1% for the first, 2.01% for the second.

First: NC(=O)Nc1cccc(C(=O)N(Cc2ccc(F)cc2)C2CC2)c1
Second: Cc1cc(OCCC(=O)NCc2ccc(F)cc2)nnc1C
The cytotoxicity at 70.5 h of the first is lower: -14.8% for the first, 0.423% for the second.

First: CCc1cnc(CN(C)C(=O)NC2CCN(c3ccccc3)C2)s1 (configuration not stated)
Second: CC(C)c1nnc(CN2CCCC2C(=O)OCc2ccccc2)o1 (configuration not stated)
The cytotoxicity at 70.5 h of the first is higher: -0.551% for the first, -10.4% for the second.

Compared with `CCO[C@@H]1CC[C@H]2[C@H]1OCCN2C(=O)CC1=CCCCC1`, `CN(Cc1ccco1)[C@@H]1CN(C(=O)c2ccnnc2)[C@@H]2CCCO[C@H]12` is higher in cytotoxicity at 70.5 h: -2.71% for the first, 1.48% for the second.

Compared with `Cn1cc(CN2CCC3(CC2)CC(=O)Nc2ccccc23)cn1`, `O=C1CC(c2ccncc2)C2(CCN(Cc3cccnc3)CC2)N1` (configuration not stated) is lower in cytotoxicity at 70.5 h: -1.78% for the first, -6.24% for the second.

Compared with `CS(=O)(=O)NC1CCN(C(=O)NCC2CCCO2)CC1` (configuration not stated), `CCNS(=O)(=O)C1CCN(C(=O)c2c(F)cc(F)cc2F)C1` (configuration not stated) is higher in cytotoxicity at 70.5 h: -10.3% for the first, -2.04% for the second.

First: c1ccc(OCC2CC3(CCN(c4ncccn4)CC3)CO2)nc1 (configuration not stated)
Second: COCC1CC2(CCN(C(=O)c3cccc(C)c3)CC2)CO1 (configuration not stated)
The cytotoxicity at 70.5 h of the first is lower: -19.6% for the first, -12.6% for the second.

Going from `Cc1nnc2ccc(N3CCN(CCc4ccccn4)CC3)nn12` to `Cc1occc1C(=O)N1CCC2(CC1)CN(c1ccccn1)CCO2`, the cytotoxicity at 70.5 h falls from -0.337% to -5.88%.

Compared with `O=C(Nc1cc(C(F)(F)F)c[nH]c1=O)N1CCSCC1`, `CC(=O)N1CCN(CCOc2ccc(F)cc2)CC(C(N)=O)C1` (configuration not stated) is lower in cytotoxicity at 70.5 h: -8.45% for the first, -9.44% for the second.

Compared with `O=C(C1CCOC1)N1CCN(Cc2ccc3c(c2)CCO3)CC1` (configuration not stated), `O=C(CC1CC1)N1CCN(Cc2cccnc2)c2ncccc2C1` is lower in cytotoxicity at 70.5 h: -9.08% for the first, -9.33% for the second.

Compared with `CC(Nc1ccc(CN2CCCC2=O)cc1)c1ccc(C#N)cc1` (configuration not stated), `COc1ccc(C(NCc2cccc(C#N)c2)C2CC2)cc1` (configuration not stated) is higher in cytotoxicity at 70.5 h: -5.25% for the first, -2.12% for the second.

Compared with `COCCN(Cc1cccnc1)S(=O)(=O)c1cc(C)ccc1F`, `COc1ccccc1C(=O)NS(=O)(=O)c1cncc(Br)c1` is higher in cytotoxicity at 70.5 h: -5.06% for the first, 9.9% for the second.

Going from `Cc1cc(NCCNc2cccnc2)nc(-c2ccccc2O)n1` to `CCNC(c1ccc(Cl)cc1)c1cccnc1` (configuration not stated), the cytotoxicity at 70.5 h rises from 3.73% to 34.5%.

Compared with `CC(=O)c1cccc(OCCCC(=O)N(C)C2CCN(C)CC2)c1`, `CN1CCN(CCOc2ccc(NC(=O)c3ccoc3)cc2)CC1` is higher in cytotoxicity at 70.5 h: -7.34% for the first, -4.12% for the second.

First: Cc1nc(C)n(CC2CCCN2Cc2nc(-c3ccoc3)no2)n1 (configuration not stated)
Second: c1csc(-c2noc(CC3CCCO3)n2)c1 (configuration not stated)
The cytotoxicity at 70.5 h of the first is lower: -11.7% for the first, 6.86% for the second.

Compared with `Cc1cnn(C2CN(CCOc3ccccc3C#N)C2)c1`, `CC1CCCN(Cc2cccc(C(=O)Nc3nccs3)c2)C1` (configuration not stated) is lower in cytotoxicity at 70.5 h: -4.34% for the first, -11.3% for the second.

Going from `Cc1ccc(-c2cc(N)c(=O)n(CC(=O)NCC3CCCCC3)n2)s1` to `CCC1CCCCN1C(=O)Cn1nc(-c2ccc(C)s2)cc(N)c1=O` (configuration not stated), the cytotoxicity at 70.5 h rises from -16.2% to -2.23%.

Compared with `COCC1(Nc2nc(C)nc3c2cnn3C)CCCC1`, `COc1c(C)cnc(CSc2nnc(C)s2)c1C` is lower in cytotoxicity at 70.5 h: 3.28% for the first, -5.43% for the second.

Compared with `CN1CC(c2cc(O)nc(NCc3ccc(Cl)cc3)n2)CC1=O` (configuration not stated), `Cc1ncsc1-c1nnc(C2CCN(Cc3ccc(Cl)cc3)CC2)o1` is higher in cytotoxicity at 70.5 h: -5.19% for the first, 32.1% for the second.

First: CCOc1ccc(CN[C@@H]2COC[C@H]2c2ccc(F)cc2)cc1
Second: CCC(C)Nc1ccc2c(c1)C1(CCOCC1)C(=O)N2c1ccccc1 (configuration not stated)
The cytotoxicity at 70.5 h of the first is higher: 29.1% for the first, -7.71% for the second.

First: COCC(=O)N1CC[C@]2(O)CCN(Cc3cccnc3OC)C[C@@H]2C1
Second: Cc1cc(CN2C[C@@H]3COC[C@]3(CNC(=O)c3ccno3)C2)no1
The cytotoxicity at 70.5 h of the first is lower: -7.29% for the first, -4.13% for the second.

Compared with `CNCCN1C(=O)CC[C@H]2CN(c3ncc(F)cn3)CC[C@H]21`, `CC(NCCN1CCC(N(C)C)CC1)c1ccc(F)cc1N(C)C` (configuration not stated) is lower in cytotoxicity at 70.5 h: 20% for the first, 15% for the second.

First: CN1CCCC(c2nnc3n2CCN(S(=O)(=O)c2ccccc2Cl)C3)C1 (configuration not stated)
Second: Cc1cc(C)nc(Nc2cccc(C3CCCN(CC4CC4)C3)n2)n1 (configuration not stated)
The cytotoxicity at 70.5 h of the first is lower: -9.93% for the first, -5.69% for the second.

First: N#Cc1c(N)nc2c(c1C1CCOC1)CCc1cc(O)ccc1-2 (configuration not stated)
Second: Cc1ccc(OCCC(=O)N2CCOCC2c2ncon2)cc1C (configuration not stated)
The cytotoxicity at 70.5 h of the first is lower: -11.5% for the first, -7.26% for the second.

Going from `Cc1cccc2[nH]c(C3CCN(C(=O)c4cnc[nH]c4=O)CC3)nc12` to `CC(=O)c1sc(C(NC(=O)c2ccccc2)C2CC2)nc1C` (configuration not stated), the cytotoxicity at 70.5 h rises from -1.84% to 8.83%.

Going from `CC(C)c1nc(CC(=O)N(C)Cc2ccc3c(c2)OCO3)cs1` to `CC(Cc1ccco1)NC(=O)Nc1ccc(N2CCCC2)nc1` (configuration not stated), the cytotoxicity at 70.5 h falls from -6.29% to -7.87%.

Work on `CCc1cnc(NCc2nc(CSC)no2)nc1` yielded a cytotoxicity at 70.5 h of 10.1%.
